This test addresses SARS-CoV-2 Papain-Like Protease (PLpro) (Severe acute respiratory syndrome coronavirus 2 (2019-nCoV) (SARS-CoV-2), UniProt P0DTD1). Description: biochemical. The following applies: SARS-CoV-2 PLpro enzymatic fluorescence assay; read-out: PLpro IC50.

Some results are limits rather than exact numbers.

For `Cc1cc2[nH]ccc2cc1C(=O)NC1(c2cccc3ccccc23)CC1` [Compound 223, 6-Methyl-N-(1-(naphthalen-1-yl)cyclopropyl)-1H-indole-5-carboxamide], the half-inhibitory concentration (IC50) was in the range of 100 to 1000 nM. As for `CON(C)C(=O)c1cc2cc(C)c(C(=O)NC3(c4cccc5ccccc45)CC3)cc2[nH]1` [Compound 225], the figure is 100 to 1000 nM; as for `Cc1cc2cc(-c3ccccc3)[nH]c2cc1C(=O)NC1(c2cccc3ccccc23)CC1` [Compound 226, 5-Methyl-N-(1-(naphthalen-1-yl)cyclopropyl)-2-phenyl-1H-indole-6-carboxamide], over 5000 nM. The same measure for `Cc1cc2c(cc1C(=O)NC1(c3cccc4ccccc34)CC1)NCCC2` [Compound 227, 6-Methyl-N-(1-(naphthalen-1-yl)cyclopropyl)-1,2,3,4-tetrahydroquinoline-7-carboxamide]: 100 to 1000 nM.

In the case of `Cc1cc2cc(CNCc3ccccc3)[nH]c2cc1C(=O)NC1(c2cccc3ccccc23)CC1` [Compound 229, 2-((Benzylamino)methyl)-5-methyl-N-(1-(naphthalen-1-yl)cyclopropyl)-1H-indole-6-carboxamide], the IC50 was under 100 nM.

For the molecule `CNCC1Cc2cc(C)c(C(=O)NC3(c4cccc5ccccc45)CC3)cc2N1` (centres unmarked) [Compound 231, 5-Methyl-2-((methylamino)methyl)-N-(1-(naphthalen-1-yl)cyclopropyl)indoline-6-carboxamide], the IC50 was under 100 nM. The same measure for `Cc1cc2cc(CN)[nH]c2cc1C(=O)NC1(c2cccc(Br)c2)CC1` [Compound 232, 2-(Aminomethyl)-N-(1-(3-bromophenyl)cyclopropyl)-5-methyl-1H-indole-6-carboxamide]: 1000 to 5000 nM; for `CNCCOc1ccc(C)c(C(=O)NC2(c3cccc4ccccc34)CC2)c1` [Compound 233, 2-Methyl-5-(2-(methylamino)ethoxy)-N-(1-(naphthalen-1-yl)cyclopropyl)benzamide]: under 100 nM; for `Cc1cc2cc(-c3ccccn3)[nH]c2cc1C(=O)NC1(c2cccc3ccccc23)CC1` [Compound 234, 5-Methyl-N-(1-(naphthalen-1-yl)cyclopropyl)-2-(pyridin-2-yl)-1H-indole-6-carboxamide]: 100 to 1000 nM. The same measure for `Cc1cc2cc(CN)oc2cc1C(=O)NC1(c2cccc3ccccc23)CC1` [Compound 236]: 100 to 1000 nM; for `Cc1cc2c(cc1C(=O)NC1(c3cccc4ccccc34)CC1)n(C)c(=O)n2C` [Compound 237, 1,3,6-Trimethyl-N-(1-(naphthalen-1-yl)cyclopropyl)-2-oxo-2,3-dihydro-1H-benzo[d]imidazole-5-carboxamide]: 1000 to 5000 nM; for `Cc1cc2[nH]c(=O)[nH]c2cc1C(=O)NC1(c2cccc3ccccc23)CC1` [Compound 238, 6-Methyl-N-(1-(naphthalen-1-yl)cyclopropyl)-2-oxo-2,3-dihydro-1H-benzo[d]imidazole-5-carboxamide]: 100 to 1000 nM. Turning to `Cc1cc2ccn(CC3CNC3)c2cc1C(=O)NC1(c2cccc3ccccc23)CC1` [Compound 239, 1-(Azetidin-3-ylmethyl)-5-methyl-N-(1-(naphthalen-1-yl)cyclopropyl)-1H-indole-6-carboxamide], the IC50 was under 100 nM.

Take `COCc1cc2cc(C)c(C(=O)NC3(c4cccc5ccccc45)CC3)cc2[nH]1` [Compound 240, 2-(Methoxymethyl)-5-methyl-N-(1-(naphthalen-1-yl)cyclopropyl)-1H-indole-6-carboxamide]: the IC50 lay in the range of 100 to 1000 nM. As for `Cc1cc2cc(CN)[nH]c2cc1C(=O)NCc1cccc2ccccc12` [Compound 241, 2-(Aminomethyl)-5-methyl-N-(naphthalen-1-ylmethyl)-1H-indole-6-carboxamide], the figure is over 5000 nM; as for `Cc1ccc(N)cc1C(=O)NS(=O)(=O)c1cccc2ccccc12` [Compound 242, 5-Amino-2-methyl-N-(naphthalen-1-ylsulfonyl)benzamide], over 5000 nM. In the case of `Cc1cc2c(cc1C(=O)NC1(c3cccc4ccccc34)CC1)NC(=O)C2(C)C` [Compound 243, 3,3,5-Trimethyl-N-(1-(naphthalen-1-yl)cyclopropyl)-2-oxoindoline-6-carboxamide], the IC50 is 1000 to 5000 nM. Regarding `Cc1cc2cc(CN)[nH]c2cc1C(=O)NC1(c2ccc(-c3ccccc3)cc2)CC1` [Compound 244, N-(1-([1,1′-Biphenyl]-4-yl)cyclopropyl)-2-(aminomethyl)-5-methyl-1H-indole-6-carboxamide], the concentration for half-maximal inhibition (IC50) was over 5000 nM. The same measure for `Cc1cc2sc(CN)nc2cc1C(=O)NC1(c2cccc3ccccc23)CC1` [Compound 245, 2-(Aminomethyl)-6-methyl-N-(1-(naphthalen-1-yl)cyclopropyl)benzo[d]thiazole-5-carboxamide]: under 100 nM; for `Cc1cc2cc(CN)[nH]c2cc1C(=O)NC1(c2ccccc2)CC1` [Compound 246, 2-(Aminomethyl)-5-methyl-N-(1-phenylcyclopropyl)-1H-indole-6-carboxamide]: over 5000 nM; for `Cc1ccc(OCCNCC(F)(F)F)cc1C(=O)NC1(c2cccc3ccccc23)CC1` [Compound 247, 2-Methyl-N-(1-(naphthalen-1-yl)cyclopropyl)-5-(2-((2,2,2-trifluoroethyl)amino)ethoxy)benzamide]: 100 to 1000 nM.

Turning to `Cc1cc2cc(CN)[nH]c2cc1C(=O)NC1(c2ccc3ccccc3c2)CC1` [Compound 248, 2-(Aminomethyl)-5-methyl-N-(1-(naphthalen-2-yl)cyclopropyl)-1H-indole-6-carboxamide], the IC50 is 1000 to 5000 nM.

In the case of `Cc1cc2c(cc1C(=O)NC1(c3cccc4ccccc34)CC1)NC(=O)C2` [Compound 249, 5-Methyl-N-(1-(naphthalen-1-yl)cyclopropyl)-2-oxoindoline-6-carboxamide], the half-inhibitory concentration (IC50) lay in the range of 100 to 1000 nM. The same measure for `Cc1ccc(OCCN(C)C)cc1C(=O)NC1(c2ccccc2Br)CC1` [Compound 251, N-(1-(2-Bromophenyl)cyclopropyl)-5-(2-(dimethylamino)ethoxy)-2-methylbenzamide]: 100 to 1000 nM. As for `Cc1ccc(OCCN(C)C)cc1C(=O)NC1(c2cccc(F)c2)CC1` [Compound 252, 5-(2-(Dimethylamino)ethoxy)-N-(1-(3-fluorophenyl)cyclopropyl)-2-methylbenzamide], the figure is over 5000 nM; as for `Cc1ccc(C2(NC(=O)c3cc(OCCN(C)C)ccc3C)CC2)cc1` [Compound 253, 5-(2-(Dimethylamino)ethoxy)-2-methyl-N-(1-(p-tolyl)cyclopropyl)benzamide], over 5000 nM; as for `Cc1ccc(OCCN2CCCCC2)cc1C(=O)NC1(c2cccc3ccccc23)CC1` [Compound 254, 2-Methyl-N-(1-(naphthalen-1-yl)cyclopropyl)-5-(2-(piperidin-1-yl)ethoxy)benzamide], under 100 nM.

Take `Cc1cccc(C2(NC(=O)c3cc(OCCN(C)C)ccc3C)CC2)c1` [Compound 255, 5-(2-(Dimethylamino)ethoxy)-2-methyl-N-(1-(m-tolyl)cyclopropyl)benzamide]: the IC50 is over 5000 nM.

On to `Cc1ccc(OCC2(N)CC2)cc1C(=O)NC1(c2cccc3ccccc23)CC1` [Compound 256], for which the 50% inhibitory concentration (IC50) was under 100 nM. As for `Cc1ccc(C(N)=O)cc1C(=O)NC1(c2cccc3ccccc23)CC1` [Compound 257], the figure is 100 to 1000 nM; as for `Cc1ccc(OCCN(C)C)cc1C(=O)NC1(c2ccc(Br)cc2)CC1` [Compound 258, N-(1-(4-Bromophenyl)cyclopropyl)-5-(2-(dimethylamino)ethoxy)-2-methylbenzamide], over 5000 nM. As for `Cc1ccc(OCCN(C)C)cc1C(=O)NC1(c2ccc(F)cc2)CC1` [Compound 259, 5-(2-(Dimethylamino)ethoxy)-N-(1-(4-fluorophenyl)cyclopropyl)-2-methylbenzamide], the figure is over 5000 nM. As for `Cc1cc2cc(C3COCCN3)[nH]c2cc1C(=O)NC1(c2cccc3ccccc23)CC1` (centres unmarked) [Compound 260, 5-Methyl-2-(morpholin-3-yl)-N-(1-(naphthalen-1-yl)cyclopropyl)-1H-indole-6-carboxamide], the figure is 100 to 1000 nM; as for `Cc1ccc(OCCN(C)C)cc1C(=O)NC1(c2cccc(Br)c2)CC1` [Compound 261, N-(1-(3-Bromophenyl)cyclopropyl)-5-(2-(dimethylamino)ethoxy)-2-methylbenzamide], 1000 to 5000 nM; as for `Cc1cc2c(cc1C(=O)NC1(c3cccc4ccccc34)CC1)NCC2(C)C` [Compound 262, 3,3,5-Trimethyl-N-(1-(naphthalen-1-yl)cyclopropyl)indoline-6-carboxamide], 100 to 1000 nM. Regarding `Cc1ccc(OCC2CCCN2)cc1C(=O)NC1(c2cccc3ccccc23)CC1` (centres unmarked) [Compound 263, 2-Methyl-N-(1-(naphthalen-1-yl)cyclopropyl)-5-(pyrrolidin-2-ylmethoxy)benzamide], the 50% inhibitory concentration (IC50) is under 100 nM.

Consider `Cc1ccc(OCCN(C)C)cc1C(=O)NC1(c2cccc(C3=CCCC3)c2)CC1` [Compound 264, N-(1-(3-(Cyclopent-1-en-1-yl)phenyl)cyclopropyl)-5-(2-(dimethylamino)ethoxy)-2-methylbenzamide], for which the IC50 is 1000 to 5000 nM.

Regarding `Cc1ccc(OC2CC(N)C2)cc1C(=O)NC1(c2cccc3ccccc23)CC1` (centres unmarked) [Compound 265, 5-(3-Aminocyclobutoxy)-2-methyl-N-(1-(naphthalen-1-yl)cyclopropyl)benzamide], the IC50 was 100 to 1000 nM. As for `Cc1ccc(OCCN(C)C)cc1C(=O)NC1(c2ccccc2-c2ccncc2)CC1` [Compound 266, 5-(2-(Dimethylamino)ethoxy)-2-methyl-N-(1-(2-(pyridin-4-yl)phenyl)cyclopropyl)benzamide], the IC50 was over 5000 nM. The same measure for `Cc1ccc(OCCN(C)C)cc1C(=O)NC1(c2ccccc2-c2ccccc2)CC1` [Compound 267, N-(1-([1,1′-Biphenyl]-2-yl)cyclopropyl)-5-(2-(dimethylamino)ethoxy)-2-methylbenzamide]: over 5000 nM; for `Cc1ccc(OC2CCCNC2)cc1C(=O)NC1(c2cccc3ccccc23)CC1` (centres unmarked) [Compound 268, 2-Methyl-N-(1-(naphthalen-1-yl)cyclopropyl)-5-(piperidin-3-yloxy)benzamide]: 100 to 1000 nM.

A word on the IC50: it is the concentration at which inhibition is half-maximal.

Source of the values: patent US20250025443A1, “COMPOUNDS AND METHODS FOR TREATING CORONA VIRUSES” (CLEAR CREEK BIO, INC., priority 2021, published 2025).
